This note sets out measurements from patent publication US10227357B2, “Compounds and methods for kinase modulation, and indications therefor” (Plexxikon Inc., priority 2012, dated 2019).

In general, IC50 refers to the midpoint of a concentration-inhibition curve.

The target in the test is T1, c-kit mutant D816V (Homo sapiens, UniProt P10721, D816V/DEL694-753).
T1 construct: residues 551-934, kinase insertion domain residues 694-753 deleted; 6x-histidine (N); made in house; host or cells: E. coli Arctic Express (DE3) RIL (Stratagene)
T1 sequence (P10721 with tags, fused parts or gaps DEL694-753/D816V): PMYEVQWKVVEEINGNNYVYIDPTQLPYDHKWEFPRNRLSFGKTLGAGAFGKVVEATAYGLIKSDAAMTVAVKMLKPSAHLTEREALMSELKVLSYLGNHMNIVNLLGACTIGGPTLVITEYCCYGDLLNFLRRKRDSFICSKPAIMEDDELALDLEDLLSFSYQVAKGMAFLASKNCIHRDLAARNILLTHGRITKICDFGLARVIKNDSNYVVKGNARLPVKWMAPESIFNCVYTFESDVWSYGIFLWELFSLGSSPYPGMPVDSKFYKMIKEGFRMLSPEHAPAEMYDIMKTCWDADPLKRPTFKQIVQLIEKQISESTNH
The experiment in a line: c-Kit mutant D816V biochemical assay, AlphaScreen. The note with it: c-kit D816V biochemical inhibitory activity; read-out: Biochemical activity (IC50 μM) Kit D816V. The method, then: Compounds to be tested were dissolved in DMSO to a concentration of 20 mM. These were diluted 30 μl into 120 μl of DMSO (4 mM) and 1 μl was added to an assay plate. These were then serially diluted 1:3 (50 μl to 100 μl DMSO) for a total of 8 points. Plates were prepared such that each kinase reaction is 20 μl in 1× kinase buffer (25 mM HEPES, pH 7.2, 8 mM MgCl2, 2 mM MnCl2, 50 mM NaCl, 0.01% Brij, 1 mM DTT, 0.01% BSA), 5% DMSO and 10 μM ATP. […] After incubation of the kinase reaction for 30 minutes at room temperature, 5 μl of donor beads (Streptavidin coated beads (Perkin Elmer Life Science) final concentration 7.5 μg/ml) in stop buffer (25 mM Hepes pH 7.5, 100 mM EDTA, 0.01% BSA) was added, the sample was mixed and incubated for 20 minutes at room temperature before adding 5 μl of acceptor beads (PY20 coated beads (Perkin Elmer Life Science) final concentration 7.5 μg/ml) in stop buffer. The samples were incubated for 60 minutes at room temperature and the signal per well was read on EnVision reader. […] The signal vs. compound concentration was used to determine the IC50.
Cells were grown in Terrific Broth (TB) media to an OD600 of 0.6 at 37° C. at which temperature was reduced to 10° C., protein was induced with 1.0 mM IPTG for 18 hours and harvested by centrifugation at 8000×g for 20 minutes. Cells were re-suspended in 0.1M KPO4 pH 8.0, 250 mM NaCl, 10% Glycerol, 0.75% NP-40, 25 mM Imidazole, 5 mM BME with 0.2 mg/ml Lysosyme, 2.0 mM PMSF, 25 μg/ml DNAse I, incubated in ice for 30 minutes and lysed with a cell disruptor (MicroFluidics). The lysate was clarified by centrifugation at 20,000×g for 2 hours. The protein was captured with Talon resin (Clontech). Contaminating proteins were washed off with 25 mM Tris-HCl pH 8.3, 250 mM NaCl, 15% Glycerol, 1% Triton X-100, and protein eluted using 100 mM EDTA. The protein was further purified using Gel Filtration column 26/600 Superdex 200 (GE) in 50 mM Tris-HCl, pH 8.0, 250 mM NaCl, 15% Glycerol, 5 mM BME. The protein was aliquoted and flash-frozen in liquid Nitrogen.
(In general: Alpha assays give light when donor and acceptor beads are brought close together.)
Regarding `C[C@H](NC(=O)N1CCN(c2ncnc3[nH]c(-c4ccc(F)cc4)cc23)CC1)c1ccc(F)cc1` [P-0126, N-[(1S)-1-(4-fluorophenyl)ethyl]-4-[6-(4-fluorophenyl)-7H-pyrrolo[2,3-d]pyrimidin-4-yl]piperazine-1-carboxamide], the IC50 fell in the range of 0.0001 to 1 µM.
The result for `COc1ccc(CNC(=O)N2CCN(c3ncnc4[nH]c(-c5ccc(F)cc5)cc34)CC2)cn1` [P-0129, 4-[6-(4-fluorophenyl)-7H-pyrrolo[2,3-d]pyrimidin-4-yl]-N-[(6-methoxy-3-pyridyl)methyl]piperazine-1-carboxamide] reads 0.0001 to 1 µM.
For `O=C(NCc1ccc(Cl)cc1)N1CCN(c2ncnc3[nH]c(C4CC4)cc23)CC1` [P-0138, N-[(4-chlorophenyl)methyl]-4-(6-cyclopropyl-7H-pyrrolo[2,3-d]pyrimidin-4-yl)piperazine-1-carboxamide], the IC50 was 0.0001 to 1 µM.
In the case of `O=C(NCc1ccc(Cl)cc1)N1CCN(c2ncnc3[nH]c(Cl)cc23)CC1` [P-0139, N-[(4-chlorophenyl)methyl]-4-(6-chloro-7H-pyrrolo[2,3-d]pyrimidin-4-yl)piperazine-1-carboxamide], the IC50 was in the range of 1 to 10 µM.
The figure for `COc1ncc(F)cc1CNC(=O)N1CCN(c2ncnc3[nH]c(-c4cccnc4)cc23)CC1` [P-0140, N-[(5-fluoro-2-methoxy-3-pyridyl)methyl]-4-[6-(3-pyridyl)-7H-pyrrolo[2,3-d]pyrimidin-4-yl]piperazine-1-carboxamide] is 1 to 10 µM; for `Cc1ccc(NS(=O)(=O)N2CCN(c3ncnc4[nH]c(-c5ccc(Cl)cc5)cc34)CC2)cc1` [P-0142, 4-[6-(4-chlorophenyl)-7H-pyrrolo[2,3-d]pyrimidin-4-yl]-N-(p-tolyl)piperazine-1-sulfonamide] it is 10 to 200 µM.
`O=C(NC(=O)N1CCN(c2ncnc3[nH]c(-c4ccc(F)cc4)cc23)CC1)c1ccccc1` [P-0143, N-benzoyl-4-[6-(4-fluorophenyl)-7H-pyrrolo[2,3-d]pyrimidin-4-yl]piperazine-1-carboxamide]: the IC50 was in the range of 1 to 10 µM.
The result for `COc1ccc([C@@H](C)NC(=O)N2CCN(c3ncnc4[nH]c(-c5ccc(F)cc5)cc34)CC2)cc1` [P-0145] reads 10 to 200 µM; that for `C[C@@H](NC(=O)N1CCN(c2ncnc3[nH]c(-c4ccc(F)cc4)cc23)CC1)c1ccc(F)cc1` [P-0146, N-[(1R)-1-(4-fluorophenyl)ethyl]-4-[6-(4-fluorophenyl)-7H-pyrrolo[2,3-d]pyrimidin-4-yl]piperazine-1-carboxamide], 10 to 200 µM; that for `C[C@@H](NC(=O)N1CCN(c2ncnc3[nH]c(-c4ccc(F)cc4)cc23)CC1)c1ccc(F)cc1` [P-0147, N-[(1R)-1-(4-fluorophenyl)ethyl]-4-[6-(4-fluorophenyl)-7H-pyrrolo[2,3-d]pyrimidin-4-yl]piperazine-1-carboxamide], 1 to 10 µM.
For `O=C(NC1CCCC1)N1CCN(c2ncnc3[nH]c(-c4ccc(F)cc4)cc23)CC1` [P-0148, N-cyclopentyl-4-[6-(4-fluorophenyl)-7H-pyrrolo[2,3-d]pyrimidin-4-yl]piperazine-1-carboxamide], the IC50 was 10 to 200 µM.
Consider `O=C(Nc1cccnc1)N1CCN(c2ncnc3[nH]ccc23)CC1` [P-0152, N-(3-pyridyl)-4-(7H-pyrrolo[2,3-d]pyrimidin-4-yl)piperazine-1-carboxamide], for which the IC50 was in the range of 0.0001 to 1 µM.
For `Cc1ccccc1C(=O)c1c[nH]c2ncnc(N3CCN(C(=O)NCc4ccc(F)cc4)CC3)c12` [P-0160, N-[(4-fluorophenyl)methyl]-4-[5-(2-methylbenzoyl)-7H-pyrrolo[2,3-d]pyrimidin-4-yl]piperazine-1-carboxamide], the IC50 is 1 to 10 µM.
Regarding `O=C(NCCc1ccc(Cl)cc1)N1CCN(c2ncnc3[nH]c(-c4ccc(F)cc4)cc23)CC1` [P-0161, N-[2-(4-chlorophenyl)ethyl]-4-[6-(4-fluorophenyl)-7H-pyrrolo[2,3-d]pyrimidin-4-yl]piperazine-1-carboxamide], the IC50 is 0.0001 to 1 µM.
For `O=C(NCCc1ccccc1)N1CCN(c2ncnc3[nH]c(-c4ccc(F)cc4)cc23)CC1` [P-0162, 4-[6-(4-fluorophenyl)-7H-pyrrolo[2,3-d]pyrimidin-4-yl]-N-phenethyl-piperazine-1-carboxamide], the IC50 lay within 10 to 200 µM.
On to `O=C(NCc1cccc(F)c1)N1CCN(c2ncnc3[nH]ccc23)CC1` [P-0163, N-[(3-fluorophenyl)methyl]-4-(7H-pyrrolo[2,3-d]pyrimidin-4-yl)piperazine-1-carboxamide], for which the IC50 fell in the range of 10 to 200 µM.
Turning to `O=C(NCCc1ccc(F)cc1)N1CCN(c2ncnc3[nH]ccc23)CC1` [P-0164, N-[2-(4-fluorophenyl)ethyl]-4-(7H-pyrrolo[2,3-d]pyrimidin-4-yl)piperazine-1-carboxamide], the IC50 was in the range of 10 to 200 µM.
Take `O=C(NC(=O)N1CCN(c2ncnc3[nH]ccc23)CC1)c1ccccc1` [P-0174, N-benzoyl-4-(7H-pyrrolo[2,3-d]pyrimidin-4-yl)piperazine-1-carboxamide]: the IC50 is 10 to 200 µM.
Consider `O=C(NCc1ccc(F)cc1)N1CCN(c2ncnc3[nH]cc(C4CC4)c23)CC1` [P-0179, 4-(5-cyclopropyl-7H-pyrrolo[2,3-d]pyrimidin-4-yl)-N-[(4-fluorophenyl)methyl]piperazine-1-carboxamide], for which the IC50 was in the range of 1 to 10 µM.
Consider `Cc1ccccc1C(=O)c1c[nH]c2ncnc(N3CCN(C(=O)OC(C)(C)C)CC3)c12` [P-0187, tert-butyl 4-[5-(2-methylbenzoyl)-7H-pyrrolo[2,3-d]pyrimidin-4-yl]piperazine-1-carboxylate], for which the IC50 is 0.0001 to 1 µM.
The figure for `CC(C)(C)OC(=O)N1CCN(c2ncnc3[nH]c(C(=O)Nc4ccccc4)cc23)CC1` [P-0211, tert-butyl 4-[6-(phenylcarbamoyl)-7H-pyrrolo[2,3-d]pyrimidin-4-yl]piperazine-1-carboxylate] is 0.0001 to 1 µM; for `COc1cccc(NC(=O)N2CCN(c3ncnc4[nH]cc(-c5ccccc5)c34)CC2)c1` [P-0228, N-(3-methoxyphenyl)-4-(5-phenyl-7H-pyrrolo[2,3-d]pyrimidin-4-yl)piperazine-1-carboxamide] it is 1 to 10 µM.
Take `COc1cccc(NC(=O)N2CCN(c3ncnc4[nH]c(-c5cccnc5)cc34)CC2)c1` [P-0231, N-(3-methoxyphenyl)-4-[6-(3-pyridyl)-7H-pyrrolo[2,3-d]pyrimidin-4-yl]piperazine-1-carboxamide]: the IC50 was in the range of 1 to 10 µM.
Take `COc1cccc(NC(=O)N2CCN(c3ncnc4[nH]c(-c5ccccc5)cc34)CC2)c1` [P-0238, N-(3-methoxyphenyl)-4-(6-phenyl-7H-pyrrolo[2,3-d]pyrimidin-4-yl)piperazine-1-carboxamide]: the IC50 is 10 to 200 µM.
As for `COc1cc2ncnc(-c3ccc(NS(C)(=O)=O)c(F)c3)c2cc1OC` [P-0272, N-[4-(6,7-dimethoxyquinazolin-4-yl)-2-fluoro-phenyl]methanesulfonamide], the IC50 is 0.0001 to 1 µM.
As for `COc1ccc(S(=O)(=O)Nc2ccc(-c3ncnc4cc(OC)c(OC)cc34)cc2F)cc1` [P-0273, N-[4-(6,7-dimethoxyquinazolin-4-yl)-2-fluoro-phenyl]-4-methoxy-benzenesulfonamide], the IC50 was 0.0001 to 1 µM.
Turning to `COc1cc2ncnc(-c3ccc(NS(=O)(=O)N4CCCC4)c(F)c3)c2cc1OC` [P-0274, N-[4-(6,7-dimethoxyquinazolin-4-yl)-2-fluoro-phenyl]pyrrolidine-1-sulfonamide], the IC50 lay in the range of 1 to 10 µM.
